Measured values taken from patent US20260256763A1, “Aromatic Amide Derivative, And Preparation Method Therefor And Use Thereof” (Zhejiang Hisun Pharmaceutical Co., Ltd., priority 2023, published 2026).

Assays:
recombinant human KIF18A = target: T1, recombinant human KIF18A (Homo sapiens, UniProt Q8NI77); assay: Inhibition on KIF18A enzyme activity (ADP-Glo); format: biochemical; details: recombinant human KIF18A 100 nM, ATP 60 μM
T1 construct: purchased GenScript
Experimental: Inhibition degrees of the compounds of the present invention on recombinant human KIF18A enzyme activity in vitro were determined by the following method. An ADP-Glo™ Kinase Assay kit (article number V9102) from Promega Company was used in this method. Detailed experimental operation can be referred to the instruction of the kit.
The reaction was carried out in a 384-well microplate. The test compound and the recombinant human KIF18A protein (final concentration of 100 nM, entrusted to GenScript for expression) were added into the wells and incubated at room temperature for 20 minutes, and subsequently, ATP solution (component V915A from the ADP-Glo™ Kinase Assay kit, final concentration of 60 μM) was added to the reaction solution and the obtained system was incubated at room temperature for 20 minutes. Subsequently, 5 μL of ADP-Glo Reagent was added to the reaction system and the obtained system was incubated at room temperature for 50 minutes. Then, 10 μL of Kinase Detection Reagent was added to the reaction system, and the obtained system was incubated at room temperature for 30 minutes. After the incubation was ended, a chemiluminiscence intensity value of each well was determined by a microplate reader in a Luminescence mode.

OVCAR-3 cells = assay: Inhibition on OVCAR-3 cell proliferation (CellTiter-Glo); format: cell-based; details: Homo sapiens, OVCAR-3 cells (TP53 R248Q mutation), 72 hours
Experimental: (§1) Influences of the compounds of the present invention on OVCAR-3 cell proliferation were determined by the following method. OVCAR-3 cells (containing TP53 R248Q mutation) were purchased from the Cell Bank of Shanghai Institute of Biochemistry and Cell Biology, Chinese Academy of Sciences, and cultured in an RPMI 1640 culture medium containing 1000 fetal bovine serum, 100 U penicillin and 100 μg/mL streptomycin. A cell viability was determined by a CellTiter-Glo® Luminescent Cell Viability Assay kit (Promega, article number G7573).
(§2) An experimental method was operated according to steps in the instruction of the kit, which was briefly described as follows: a test compound was dissolved in DMSO first to prepare a 10 mM stock solution, then the stock solution was diluted with the above RPMI 1640 culture medium to prepare a test sample, and a final concentration of the compound was in a range of 1000 nM-0.015 nM. Cells in a logarithmic growth phase were inoculated into a 96-well cell culture plate at a density of 1000 cells per well, cultured in a 5% CO2 incubator at 37° C. overnight, and then the test compound was added to continuously culture for 72 hours. After the culture was ended, 50 μL of CellTiter-Glo detection solution was added to each well, the plates were shaken for 5 minutes, and then allowed to stand for 10 minutes, and subsequently, a luminous value of each well of sample was read by a microplate reader in a Luminescence mode. By comparing with a numerical value of a control group (0.3% DMSO), a percentage inhibition rate of the compound at each concentration was calculated, and then nonlinear regression analysis was carried out based on concentration logarithm-inhibition rate of the compound in GraphPad Prism 5 software, so as to obtain an IC50 value of the compound in inhibition on cell proliferation, which are shown in Table 1.

HT-29 cells = assay: Inhibition on HT-29 cell proliferation (CellTiter-Glo); format: cell-based; details: Homo sapiens, HT-29 cells (TP53 R273H mutation), 120 hours
Experimental: as §1, with “HT-29” for “OVCAR-3”, “R273H” for “R248Q”, “a McCOY's 5A” for “an RPMI 1640”, “10%” for “1000”
as §2, with “McCOY's 5A” for “RPMI 1640”, “120” for “72”, “µL” for “μL”, “2.” for “1.”

T1 sequence (Q8NI77 whole entry): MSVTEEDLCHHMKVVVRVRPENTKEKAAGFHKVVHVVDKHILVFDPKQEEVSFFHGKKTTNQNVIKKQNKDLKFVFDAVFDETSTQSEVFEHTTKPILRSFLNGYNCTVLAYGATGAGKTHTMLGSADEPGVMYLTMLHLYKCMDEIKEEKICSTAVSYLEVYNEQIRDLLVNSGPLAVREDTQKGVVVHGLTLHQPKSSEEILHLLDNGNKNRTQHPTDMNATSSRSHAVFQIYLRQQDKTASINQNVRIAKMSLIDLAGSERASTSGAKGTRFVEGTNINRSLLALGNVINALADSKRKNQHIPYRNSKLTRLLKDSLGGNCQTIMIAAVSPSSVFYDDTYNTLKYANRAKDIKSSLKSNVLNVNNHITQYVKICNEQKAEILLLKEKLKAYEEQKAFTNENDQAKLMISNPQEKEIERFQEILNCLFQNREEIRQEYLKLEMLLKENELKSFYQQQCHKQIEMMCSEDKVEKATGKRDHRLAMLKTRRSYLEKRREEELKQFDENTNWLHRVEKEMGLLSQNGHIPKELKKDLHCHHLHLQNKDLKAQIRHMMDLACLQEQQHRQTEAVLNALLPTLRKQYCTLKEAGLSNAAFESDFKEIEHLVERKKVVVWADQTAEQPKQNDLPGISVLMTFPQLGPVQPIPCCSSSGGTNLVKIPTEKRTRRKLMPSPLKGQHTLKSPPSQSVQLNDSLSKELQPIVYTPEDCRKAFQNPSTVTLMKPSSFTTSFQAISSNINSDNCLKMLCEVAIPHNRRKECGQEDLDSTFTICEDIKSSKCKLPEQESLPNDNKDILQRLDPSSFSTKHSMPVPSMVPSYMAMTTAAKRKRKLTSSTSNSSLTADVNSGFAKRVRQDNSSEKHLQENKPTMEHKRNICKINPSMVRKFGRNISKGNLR
T1 sequence (P68363 whole entry partner): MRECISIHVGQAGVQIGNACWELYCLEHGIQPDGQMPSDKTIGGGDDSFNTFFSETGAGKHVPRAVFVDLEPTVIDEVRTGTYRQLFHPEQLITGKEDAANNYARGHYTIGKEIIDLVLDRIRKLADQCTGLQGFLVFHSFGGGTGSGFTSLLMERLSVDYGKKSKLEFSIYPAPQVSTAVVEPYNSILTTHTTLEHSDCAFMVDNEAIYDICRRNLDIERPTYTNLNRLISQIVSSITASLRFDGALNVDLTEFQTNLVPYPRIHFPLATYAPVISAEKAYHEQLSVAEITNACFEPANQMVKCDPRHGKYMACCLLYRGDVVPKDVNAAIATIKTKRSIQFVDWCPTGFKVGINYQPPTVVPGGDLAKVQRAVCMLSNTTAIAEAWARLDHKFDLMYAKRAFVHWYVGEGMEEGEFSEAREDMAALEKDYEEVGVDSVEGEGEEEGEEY
T1 sequence (Q9BVA1 whole entry partner): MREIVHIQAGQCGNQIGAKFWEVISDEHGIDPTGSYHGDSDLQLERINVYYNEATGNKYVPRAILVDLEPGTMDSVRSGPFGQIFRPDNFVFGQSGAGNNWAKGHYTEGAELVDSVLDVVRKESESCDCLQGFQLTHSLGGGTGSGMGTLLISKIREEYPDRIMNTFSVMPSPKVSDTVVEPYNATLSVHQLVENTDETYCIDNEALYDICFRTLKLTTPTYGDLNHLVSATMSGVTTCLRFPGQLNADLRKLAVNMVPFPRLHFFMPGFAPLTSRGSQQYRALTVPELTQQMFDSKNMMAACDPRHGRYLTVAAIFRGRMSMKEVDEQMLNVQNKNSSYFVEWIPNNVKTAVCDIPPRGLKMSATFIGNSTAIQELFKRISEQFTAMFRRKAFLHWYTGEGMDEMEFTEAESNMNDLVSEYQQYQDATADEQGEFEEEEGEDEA

Compound | IC50 (recombinant human KIF18A) | IC50 (OVCAR-3 cells) | IC50 (HT-29 cells)
CCS(=O)(=O)Nc1ccc(C(=O)Nc2cc(N3CCC(F)(F)CC3)c3cn(C)nc3c2)c(N2CCC3(CC2)CC3)c1 [Example 17, N-(4-(4,4-difluoropiperidin-1-yl)-2-methyl-2H-indazol-6-yl)-4-(ethylsulfonamido)-2-(6-azaspiro[2.5]octan-6-yl)benzamide] | 280 nM | 6.6 nM | –
CCS(=O)(=O)Nc1ccc(C(=O)Nc2cc3c(c(N4CCC(F)(F)CC4)c2)OCO3)c(N2CCC3(CC2)CC3)c1 [Example 13, N-(7-(4,4-difluoropiperidin-1-yl)benzo[d][1,3]dioxol-5-yl)-4-(ethylsulfonamido)-2-(6-azaspiro[2.5]octan-6-yl)benzamide] | 291 nM | 5.5 nM | 7.3 nM
CCS(=O)(=O)Nc1ccc(C(=O)Nc2cc3c(c(CC(C)C)c2)OCC3)c(N2CCC3(CC2)CC3)c1 [Example 10, 4-(ethylsulfonamido)-N-(7-isobutyl-2,3-dihydrobenzofuran-5-yl)-2-(6-azaspiro[2.5]octan-6-yl)benzamide] | 267 nM | – | –
CCS(=O)(=O)Nc1ccc(C(=O)Nc2cc(N3CCC(F)(F)CC3)c3cn[nH]c3c2)c(N2CCC3(CC2)CC3)c1 [Example 20, N-(4-(4,4-difluoropiperidin-1-yl)-1H-indazol-6-yl)-4-(ethylsulfonamido)-2-(6-azaspiro[2.5]octan-6-yl)benzamide] | 197 nM | 20.3 nM | –
CCS(=O)(=O)Nc1ccc(C(=O)Nc2cc(N3CCC(F)(F)CC3)c3cnn(C)c3c2)c(N2CCC3(CC2)CC3)c1 [Example 16, N-(4-(4,4-difluoropiperidin-1-yl)-1-methyl-1H-indazol-6-yl)-4-(ethylsulfonamido)-2-(6-azaspiro[2.5]octan-6-yl)benzamide] | 209 nM | 36.7 nM | 35.7 nM
CCS(=O)(=O)Nc1ccc(C(=O)Nc2cc3c(c(N4CCC(F)(F)CC4)c2)OCCO3)c(N2CCC3(CC2)CC3)c1 [Example 14, N-(8-(4,4-difluoropiperidin-1-yl)-2,3-dihydrobenzo[b][1,4]dioxin-6-yl)-4-(ethylsulfonamido)-2-(6-azaspiro[2.5]octan-6-yl)benzamide] | 184 nM | 8.4 nM | 9.2 nM
CCS(=O)(=O)Nc1ccc(C(=O)Nc2cc3c(c(N4CCC5(CC4)CC5)c2)OCC3)c(N2CCC3(CC2)CC3)c1 [Example 4, N-(7-(6-azaspiro[2.5]octan-6-yl)-2,3-dihydrobenzofuran-5-yl)-4-(ethylsulfonamido)-2-(6-azaspiro[2.5]octan-6-yl)benzamide] | 212 nM | – | –
CCS(=O)(=O)Nc1ccc(C(=O)Nc2cc3c(c(N4CCC(F)(F)C4)c2)OCC3)c(N2CCC3(CC2)CC3)c1 [Example 5, N-(7-(3,3-difluoropyrrolidine-1-yl)-2,3-dihydrobenzofuran-5-yl)-4-(ethylsulfonamido)-2-(6-azaspiro[2.5]octan-6-yl)benzamide] | 134 nM | – | –
CCS(=O)(=O)Nc1ccc(C(=O)Nc2cc3c(c(N4CCC(F)(F)CC4)c2)C(=O)NC3)c(N2CCC3(CC2)CC3)c1 [Example 23, N-(7-(4,4-difluoropiperidin-1-yl)-1-oxoisoindolin-5-yl)-4-(ethylsulfonamido)-2-(6-azaspiro[2.5]octan-6-yl)benzamide] | 123 nM | 3.6 nM | 5.8 nM
CCS(=O)(=O)Nc1ccc(C(=O)Nc2cc(N3CCC(F)(F)C3)c3nn(C)cc3c2)c(N2CCC3(CC2)CC3)c1 [Example 25, N-(7-(3,3-difluoropyrrolidin-1-yl)-2-methyl-2H-indazol-5-yl)-4-(ethylsulfonamido)-2-(6-azaspiro[2.5]octan-6-yl)benzamide] | 198 nM | 33.6 nM | –
O=C(Nc1cc2c(c(C3(O)CCC(F)(F)CC3)c1)OCC2)c1ccc(NS(=O)(=O)C2CC2)cc1N1CCC2(CC1)CC2 [Example 12, 4-(cyclopropanesulfonamido)-N-(7-(4,4-difluoro-1-hydroxycyclohexyl)-2,3-dihydrobenzofuran-5-yl)-2-(6-azaspiro[2.5]octan-6-yl)benzamide] | 173 nM | – | –
CCS(=O)(=O)Nc1ccc(C(=O)Nc2cc3c(c(C4(O)CCC(F)(F)CC4)c2)OCC3)c(N2CCC3(CC2)CC3)c1 [Example 11, N-(7-(4,4-difluoro-1-hydroxycyclohexyl)-2,3-dihydrobenzofuran-5-yl)-4-(ethylsulfonamido)-2-(6-azaspiro[2.5]octan-6-yl)benzamide] | 263 nM | – | –
CCS(=O)(=O)Nc1ccc(C(=O)Nc2cc3c(c(N4CCC(F)(F)CC4)c2)OCCC3)c(N2CCC3(CC2)CC3)c1 [Example 15] | – | 18.4 nM | 23.6 nM
Cn1cc2cc(NC(=O)c3ccc(NS(=O)(=O)C4CC4)cc3N3CCC4(CC3)CC4)cc(N3CCC(F)(F)CC3)c2n1 [Example 26] | 256 nM | – | –

Other lines, results leading:

IC50 (recombinant human KIF18A) | IC50 (OVCAR-3 cells) | IC50 (HT-29 cells) | Compound
60.9 nM | 9.1 nM | 10.7 nM | CCS(=O)(=O)Nc1ccc(C(=O)Nc2cc3c(c(N4CC(F)(F)C4)c2)OCC3)c(N2CCC3(CC2)CC3)c1 [Example 6, N-(7-(3,3-difluoroazetidine-1-yl)-2,3-dihydrobenzofuran-5-yl)-4-(ethylsulfonamido)-2-(6-azaspiro[2.5]octan-6-yl)benzamide]
109 nM | 1.96 nM | – | CCS(=O)(=O)Nc1ccc(C(=O)Nc2cc3c(c(N4CCOCC4)c2)C(=O)N(C)C3)c(N2CCC3(CC2)CC3)c1 [Example 27, 4-(ethylsulfonamido)-N-(2-methyl-7-morpholino-1-oxoisoindolin-5-yl)-2-(6-azaspiro[2.5]octan-6-yl)benzamide]
72.5 nM | 11.2 nM | 6.6 nM | CCS(=O)(=O)Nc1ccc(C(=O)Nc2cc3c(c(N4CCCCC4)c2)OCC3)c(N2CCC3(CC2)CC3)c1 [Example 3, 4-(ethylsulfonamido)-N-(7-(piperidin-1-yl)-2,3-dihydrobenzofuran-5-yl)-2-(6-azaspiro[2.5]octan-6-yl)benzamide]
85.7 nM | 13.4 nM | 4.1 nM | CCS(=O)(=O)Nc1ccc(C(=O)Nc2cc(N3CC(F)(F)C3)c3nn(C)cc3c2)c(N2CCC3(CC2)CC3)c1 [Example 24, N-(7-(3,3-difluoroazetidin-1-yl)-2-methyl-2H-indazol-5-yl)-4-(ethylsulfonamido)-2-(6-azaspiro[2.5]octan-6-yl)benzamide]
90.6 nM | – | – | CCS(=O)(=O)Nc1ccc(C(=O)Nc2cc3c(c(C4CC4)c2)OCC3)c(N2CCC3(CC2)CC3)c1 [Example 8, N-(7-cyclopropyl-2,3-dihydrobenzofuran-5-yl)-4-(ethylsulfonamido)-2-(6-azaspiro[2.5]octan-6-yl)benzamide]
98.5 nM | 33.2 nM | – | CCS(=O)(=O)Nc1ccc(C(=O)Nc2cc(N3CCC(F)(F)CC3)c3oc(C)nc3c2)c(N2CCC3(CC2)CC3)c1 [Example 22, N-(7-(4,4-difluoropiperidin-1-yl)-2-methylbenzo[d]oxazol-5-yl)-4-(ethylsulfonamido)-2-(6-azaspiro[2.5]octan-6-yl)benzamide]
